Tests used:
MDA-MB-231 cells [1] = assay: 2D monolayer growth, MDA-MB-231; assay type: cell-based, human; details: 10 μM, time-dependent
PARP = assay: Western blot of PARP protein expression; assay type: cell-based, human; details: MDA-MB; 0.1, 1 and 10 μM; 120 hours
Description: (§1) Beta-actin was used as a control for equal loading.
(§2) Western Blotting: Cells were lysed in RIPA buffer (Sigma Aldrich, Inc.) containing one tablet of Complete TM inhibitor mix (Roche Applied Science, Indianapolis) and one tablet of PhosSTOP™ […] per 10 mL of buffer and loaded onto SDS-polyacrylamide gels. The gels were transferred to 0.2 μm nitrocellulose membranes, using the Trans-Blot Turbo Transfer System (Bio-Rad, Inc.) Membranes were incubated with the respective primary antibodies diluted in Tris-buffered saline, 0.1% Tween 20 (Sigma Aldrich, Inc.) and 5% Bovine Serum Albumin (BSA; Sigma Aldrich Inc.) (TBST), and incubated overnight at 4° C. Then, the blots were washed and incubated with appropriate secondary antibodies and detected using Super Signal West Pico Chemiluminescent Substrate (Thermo Scientific, Inc.), using the G-Box (Syngene, Inc). Antibodies and their dilutions used for Western blot analysis were as follows: mouse anti-ATP5F1C 1:500, mouse anti-β-actin 1:10,000, rabbit anti-PARP 1:1,000, rabbit anti-p21 1:1,000. The resulting immune-blot images were acquired using GeneSys Software (Syngene, Inc.).

MDA-MB-231 cells [2] = assay: 3D anchorage independent growth (mammosphere formation) assay; assay type: cell-based, human
Description: 3D Anchorage Independent Growth Assay: This assay is also referred to as the mammosphere formation assay. A single-cell suspension was prepared using enzymatic, and manual disaggregation (25-g needle). Then, cells were plated at a density of 500 cells/cm^2 in mammosphere medium (DMEM-F12+1X B-27 Plus Supplement+20 ng/ml EGF+Pen/Strep) under non-adherent conditions, in culture dishes pre-coated with (2-hydroxyethylmethacrylate) (poly-HEMA, Sigma Aldrich Inc.), called “mammosphere plates.” Cells were grown for 5 days and maintained in a humidified incubator at 37° C. After 5 days of culture, 3D-mammospheres >50 μm were counted using an eye piece (“graticule”), and the percentage of cells plated which formed spheres was calculated and is referred to as percent mammosphere formation, and was normalized to one (1=100% MFE). 3D mammosphere formation efficiency (MFE) was analyzed in both the ATP-low and ATP-high sub-populations of cells. All 3D mammosphere experiments were performed in triplicate, at least 3 times independently.

ATP5F1C = target: T1, ATP5F1C (Homo sapiens, UniProt P05496+P36542); assay: Western blot of ATP5F1C protein expression in MDA-MB-231 2D monolayers; assay type: cell-based; details: 0.1, 1 and 10 μM, especially 10 μM, 24-120 hours, relative to DMSO
T1 construct: Western blot analysis of MDA-MB-231 2D cell monolayers treated with Bedaquiline; endogenous in cells; host or cells: MDA-MB-231 (ATCC)
Description: The binding of Bedaquiline to ATP5F1C in situ induces degradation of the protein. […] The effect was both time- and concentration-dependent.
as §2

MCF10A cells = assay: 2D monolayer growth, MCF10A; details: MCF10A normal control mammary epithelial cells; 10 μM
[3] = system: mitochondrial ATP production in MDA-MB-231 cells; assay: ATP assay using BioTracker ATP-Red 1 (flow cytometry); assay type: cell-based, human
Description: FIG. 7 compares the fold-change of BioTracker ATP-Red (signal mean) between the control and MDA-MB-231 cells treated with Bedaquiline. […] The data in FIG. 7 based on two-way ANOVA, Sidak's multiple comparisons test, *p<0.05, ** p<0.005, ***p<0.0005, ****p<0.0001.
ATP assay using BioTracker ATP-Red 1: Cells were stained with BioTracker ATP-Red 1 after various treatments. After 30 minutes of incubation, the cells were washed twice with DPBS, collected and dissociated into a single-cell suspension with a 40 μm cell strainer. The cells were analyzed using the Attune N×T Flow Cytometer. Means of the signal (at 570 nm) were compared.

MDA-MB-231 cells [4] = assay: Live cell/dead cell analysis by FACS; assay type: cell-based, human; details: 1 and 10 μM
Description: FIGS. 10D-10F show the results of live cell/dead cell analysis. MDA-MB-231 cells were treated with Bedaquiline (1 and 10 μM) or vehicle alone, for 48, 72 and 120 hours, and then subjected to live/dead analysis by FACS. […] However, at 72 and 120 hours (FIGS. 10E and 10F), a decrease in the live cell population and an increase in the dead cell population can be seen. […] Two-way ANOVA, Sidak's multiple comparisons test, ns=not significant, *p<0.01, **p<0.001, ***p<0.0005.

chick embryos = assay: CAM assay: embryo toxicity; set-up: species or system chicken (White Leghorn); details: all concentrations tested in vivo; daily for 8 days
Description: Next, to test in vivo activity, the well-established CAM assay was used with MDA-MB-231 cells, to measure the effect of Bedaquiline effects on tumor growth, spontaneous metastasis and embryo toxicity. FIG. 11A illustrates the timeline for the CAM assay. An inoculum of 1×10^6 MDA-MB-231 cells was added onto the CAM of each egg (day E9) and then eggs were randomized into groups. On day E10, tumors were detectable and they were then treated daily for 8 days with vehicle alone (1% DMSO in PBS) or Bedaquiline. After 8 days of drug administration, on day E18, all tumors were weighed, and the lower CAM was collected to evaluate the number of metastatic cells, as analyzed by qPCR with specific primers for Human Alu sequences. Before each drug administration, treatment tolerability was evaluated by scoring the number of live and dead chicken embryos.
Tumor Growth, Metastasis and Embryo Toxicity Assays: Xenograft assays were carried out by INOVOTION (Société: 811310127), La Tronche-France. […] For tumor growth assays, at least 14 tumor samples were collected and analysed per group (N≥14). […] Genomic DNA was extracted from the CAM (commercial kit) and analyzed by qPCR with specific primers for Human Alu sequences. […] Before each administration, the treatment tolerability was evaluated by scoring the number of live and dead embryos.

MDA-MB-231 cells [5] = assay: Cell cycle analysis by FACS; assay type: cell-based, human
Description: FIGS. 10A-10C show cell cycle populations for MDA-MB-231 cells treated with Bedaquiline (1 and 10 μM) or vehicle alone, after 48, 72 and 120 hours, respectively. Cell cycle analysis was performed using FACS. […] However, at 72 and 120 hours, a decrease in the S-phase population and a concomitant increase in the sub-G0-G1 population can be seen in FIGS. 10B and 10C. Two-way ANOVA, Sidak's multiple comparisons test, ns=not significant, *p<0.01, **p<0.001, ***p<0.0005.
Cell Cycle Analysis by FACS: Cell-cycle analysis was performed on the ATP-high and ATP-low cell sub-populations, by FACS analysis using the Attune N×T Flow Cytometer. Briefly, after trypsinization, the re-suspended cells were incubated with propidium iodide, as per the manufacturer's recommendations (Merck Millipore, Inc.). At least 25,000 events were analyzed per condition. Gated cells were categorized into cell-cycle stages.

MDA-MB-231 cells [6] = assay: Cell migration assay (Transwells); assay type: cell-based, human; details: 10 μM, 32 hours then 16 hours in Transwells
Description: MDA-MB-231 cells were cultured in presence of Bedaquiline (10 μM) for 32 hours and moved to the Transwells for 16 hours in presence of Bedaquiline (10 μM). Unpaired t-test, **p<0.005.
Cell Migration Assays: Briefly, 3.5×10^4 cells in 0.5 ml of serum-free DMEM with 0.1% BSA were added to the wells of 8-μm pore, non-coated membrane modified Boyden chambers (Transwells). The lower chambers contained 10% fetal bovine serum in DMEM to serve as a chemo-attractant. Cells were incubated at 37° C. and allowed to migrate throughout the course of 16 hours. Noninvasive cells were removed from the upper surface of the membrane by scrubbing with cotton swabs. Chambers were stained in 0.5% crystal violet diluted in 100% methanol for 30-60 min, rinsed in water and examined under a bright-field microscope. Values for invasion and migration were obtained by counting five fields per membrane (20× objective) and represent the average of three independent experiments.

MDA-MB-231 cells [7] = assay: CAM assay: tumor growth and spontaneous metastasis of MDA-MB-231 xenografts; assay type: in vivo, chicken embryo (White Leghorn eggs)
p21 = assay: Western blot of p21 protein expression; assay type: cell-based, human; details: MDA-MB; 0.1, 1 and 10 μM; 120 hours
Description: as §1, §2

Compound: COc1nc2ccc(Br)cc2cc1[C@@H](c1ccccc1)[C@@](O)(CCN(C)C)c1cccc2ccccc12 [Bedaquiline, (1R,2S)-1-(6-bromo-2-methoxyquinolin-3-yl)-4-(dimethylamino)-2-naphthalen-1-yl-1-phenylbutan-2-ol]
- 2D monolayer growth (MDA-MB-231 cells [1]): effectively inhibits 2D growth
- PARP protein expression (PARP): decreased in a concentration-dependent manner
- block of 3D mammosphere formation (MDA-MB-231 cells [2]; MDA-MB-231, 10 μM): ~ 65%
- levels of ATP5F1C protein expression (ATP5F1C): reduced in a sustained way
- 2D monolayer growth (MCF10A cells): No effect
- inhibition at 10 µM ([3]; Homo sapiens, MDA-MB-231, 10 μM, 120 hours of treatment, read-out: maximal inhibition of mitochondrial ATP production): 75%
- apoptotic cell population (early or late) (MDA-MB-231 cells [4]; 72 and 120 hours): no increase
- dead cell population (MDA-MB-231 cells [4]; 72 and 120 hours): increase
- live cell population (MDA-MB-231 cells [4]; 72 and 120 hours): decrease
- live/dead cell populations (MDA-MB-231 cells [4]; 48 hours): No effects were detectable
- toxicity for chick embryos (egg survival) (chick embryos): not toxic
- S-phase population (MDA-MB-231 cells [5]; 1 and 10 μM, 72 and 120 hours): decrease
- sub-G0-G1 population (MDA-MB-231 cells [5]; 1 and 10 μM, 72 and 120 hours): increase
- cell cycle populations (MDA-MB-231 cells [5]; 1 and 10 μM, 48 hours): No effects were detectable
- increase in the sub-G0-G1 population (MDA-MB-231 cells [5]; after 120 hours of treatment): 2 fold
- reduction of cells in S-phase (MDA-MB-231 cells [5]; after 120 hours of treatment): 2 fold
- block of cell migration (MDA-MB-231 cells [6]): ~ 50%
- inhibition of spontaneous metastasis (MDA-MB-231 cells [7]; CAM, 120 μM treatment, daily for 8 days, qPCR Human Alu, vs control): 84%
- tumor growth (average tumor weight) (MDA-MB-231 cells [7]; CAM, treated daily for 8 days, day E18): no statistically significant effect
- p21 protein expression (p21): decreased in a concentration-dependent manner

Compound: CCCCCCCCCCCCCC(=O)OCCCCc1ccc2nc(OC)c([C@@H](c3ccccc3)[C@@](O)(CCN(C)C)c3cccc4ccccc34)cc2c1 [structure [4B]]
- potency relative to unconjugated Bedaquiline, inhibiting mammosphere formation (MDA-MB-231 cells [2]; initial/early assessment): 2-5 fold
- potency relative to unconjugated Bedaquiline, inducing ATP-depletion ([3]; initial/early assessment): 2-5 fold
- potency relative to unconjugated Bedaquiline, inhibiting spontaneous metastasis (MDA-MB-231 cells [7]; initial/early assessment, CAM assay): 2-5 fold

— patent US12723029B2, “Mitochondrial ATP inhibitors targeting the gamma subunit prevent metastasis” (LUNELLA BIOTECH, INC., priority 2020, dated 2026)
